From patent US20040106135A1, “Assay for PPAR ligand dependent gene modulation” (priority 2002, published 2004) come the findings set out here.

One assay relates to ACHN cells. The assay is described as follows: Transcriptional profiling by DNA microarray, ACHN cells. It counts as cell-based, human. The source says:
Threshold cutoffs were set at fold change >1.4; p<0.01; and statistically significant in at least 2 experiments. The genes fatty acid CoA ligase 2 (FACL2), palmitoyl acyl-CoA oxidase 1 (ACOX1), and carnitine palmitoyl acyl-CoA transferase (CPT1A) are included for comparison based on published reports that they are PPARα responsive genes in HepG2 cells over expressing PPARα (Hsu et al., (2001) J. Biol. Chem. 276:27950-8; Lawrence et al., (2001) J. Biol. Chem. 276:31521-7).
Expression profiling: Expression profiling of RNA samples was performed essentially as described (Lockhart et al., (1996) Nat. Biotechnol. 14:1675-80) using the Affymetrix human U95Av2 array. Briefly, RNA was isolated from 100 mm cell culture dishes, DNased, and 15 μg used as a template for double stranded cDNA synthesis according to standard protocols (Invitrogen). […] The resultant cRNA products were purified using RNeasy columns (Qiagen), pooled, and quantitated spectrophotometrically. […]
Data Analysis: Affymetrix CEL files from GeneChip 4.0 (Affymetrix) were imported into Resolver 2.0 under an empirically derived Affymetrix error model (Rosetta Inpharmatics). […] Accordingly, the statistical significance (P-value) of a given expression data point takes into account the underlying error associated with the Affymetrix transcript abundance measurements as determined by this platform-specific error model. […]

A short description of assay [1]: Serum triglyceride levels in fat-fed hamsters. Format: in vivo, hamster. The protocol:
Blood was sampled at 8, 16 and 48 hours following a single drug treatment for total triglyceride analysis. The mean levels (+/−SEM) for 3 animals per group are shown. The “*” indicates a statistically significant difference with respect to control (p<0.01) by Student's t-test. Animal studies: All procedures performed in this study were approved by the Animal Care and Use committee, and conform to the guide for the Care and Use of Laboratory Animals Act. Male Syrian Golden hamsters (Charles River, Wilmington Mass.) weighing 120-140 g, were used in the study. Animals were kept on a 12-hour light/dark cycle and allowed free access to normal chow and water. The animals were divided into groups according to weight, and fed either an high fat diet (0.5% cholesterol, 5% coconut oil) (N=3) or normal chow diet (N=3). […] At intervals of 0, 8, 16 and 48 hr animals were anesthetized with CO2. Blood was collected by cardiac puncture into EDTA containing tubes; plasma was isolated for immediate analysis of triglycerides by the Dade Clinical Analyser®. Animals were then euthanized with CO2. The liver and kidneys were collected, flash frozen in liquid nitrogen and stored at −80° C. for future gene expression analysis.

The structures appear in SMILES notation. Marks after values point to notes of the source that are not given here.

Consider `CCCCCCCN(CCc1ccc(SC(C)(C)C(=O)O)cc1)C(=O)Nc1ccc(F)cc1F` [GW9578, ureido-thioisobutyric acid], for which the “ADRP induction in ACHN cells” value in the assay with ACHN cells is reported as “significantly induced”. Further, in assay [1] (single dose, 8, 16 and 48 hours), the “Change of triglyceride levels compared with the control group” value is “significantly decreased”. Besides, the “Serum triglyceride levels, 48 h” value in assay [1] (single dose, mean +/- SEM, 3 animals, control 208.67) was 104.67 + 12.02*. Also, the “Serum triglyceride levels, 8 h” value in assay [1] (single dose, mean +/- SEM, 3 animals, control 261.33) is 106.00 + 46.22*. The “Serum triglyceride levels, 16 h” value in assay [1] (single dose, mean +/- SEM, 3 animals, control 308.00) is reported as 142.33 + 51.31*.
